In article PMC11945486, “TAS1R2/TAS1R3 Single-Nucleotide Polymorphisms Affect Sweet Taste Receptor Activation by Sweeteners: The SWEET Project” (Nutrients, 2025):
Read-outs that look alike come from different tables or passages of the source. No end group written: not given here.

T1: human TAS1R2-WT/TAS1R3-L823F (Homo sapiens, UniProt Q7RTX0+Q8TE23, L823F)
T1 construct: expressed in transfected cells; host or cells: HEK293T stably expressing Gα16gust44
T1 sequence (Q8TE23 20-839): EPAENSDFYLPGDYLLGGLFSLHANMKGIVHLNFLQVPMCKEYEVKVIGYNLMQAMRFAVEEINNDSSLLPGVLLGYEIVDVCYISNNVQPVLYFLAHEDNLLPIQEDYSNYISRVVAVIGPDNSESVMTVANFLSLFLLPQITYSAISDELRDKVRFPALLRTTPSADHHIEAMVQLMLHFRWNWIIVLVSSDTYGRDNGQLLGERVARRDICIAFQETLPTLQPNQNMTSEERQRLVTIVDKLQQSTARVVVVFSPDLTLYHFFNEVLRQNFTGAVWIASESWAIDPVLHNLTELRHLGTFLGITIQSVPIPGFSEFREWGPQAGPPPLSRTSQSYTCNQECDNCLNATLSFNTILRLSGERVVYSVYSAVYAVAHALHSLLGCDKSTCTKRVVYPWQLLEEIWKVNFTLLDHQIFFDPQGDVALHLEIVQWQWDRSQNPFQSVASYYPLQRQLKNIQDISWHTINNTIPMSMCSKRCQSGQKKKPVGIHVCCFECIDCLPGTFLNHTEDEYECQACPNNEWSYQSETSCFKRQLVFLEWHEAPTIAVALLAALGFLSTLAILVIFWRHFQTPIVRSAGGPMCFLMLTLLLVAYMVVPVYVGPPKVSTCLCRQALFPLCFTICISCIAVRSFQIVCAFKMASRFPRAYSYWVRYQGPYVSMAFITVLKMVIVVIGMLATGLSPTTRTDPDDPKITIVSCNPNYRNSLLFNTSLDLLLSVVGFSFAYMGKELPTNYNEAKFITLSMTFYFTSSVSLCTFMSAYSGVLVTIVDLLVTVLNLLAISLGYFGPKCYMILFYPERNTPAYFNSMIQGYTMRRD
T1 sequence (Q7RTX0 21-852 L823F): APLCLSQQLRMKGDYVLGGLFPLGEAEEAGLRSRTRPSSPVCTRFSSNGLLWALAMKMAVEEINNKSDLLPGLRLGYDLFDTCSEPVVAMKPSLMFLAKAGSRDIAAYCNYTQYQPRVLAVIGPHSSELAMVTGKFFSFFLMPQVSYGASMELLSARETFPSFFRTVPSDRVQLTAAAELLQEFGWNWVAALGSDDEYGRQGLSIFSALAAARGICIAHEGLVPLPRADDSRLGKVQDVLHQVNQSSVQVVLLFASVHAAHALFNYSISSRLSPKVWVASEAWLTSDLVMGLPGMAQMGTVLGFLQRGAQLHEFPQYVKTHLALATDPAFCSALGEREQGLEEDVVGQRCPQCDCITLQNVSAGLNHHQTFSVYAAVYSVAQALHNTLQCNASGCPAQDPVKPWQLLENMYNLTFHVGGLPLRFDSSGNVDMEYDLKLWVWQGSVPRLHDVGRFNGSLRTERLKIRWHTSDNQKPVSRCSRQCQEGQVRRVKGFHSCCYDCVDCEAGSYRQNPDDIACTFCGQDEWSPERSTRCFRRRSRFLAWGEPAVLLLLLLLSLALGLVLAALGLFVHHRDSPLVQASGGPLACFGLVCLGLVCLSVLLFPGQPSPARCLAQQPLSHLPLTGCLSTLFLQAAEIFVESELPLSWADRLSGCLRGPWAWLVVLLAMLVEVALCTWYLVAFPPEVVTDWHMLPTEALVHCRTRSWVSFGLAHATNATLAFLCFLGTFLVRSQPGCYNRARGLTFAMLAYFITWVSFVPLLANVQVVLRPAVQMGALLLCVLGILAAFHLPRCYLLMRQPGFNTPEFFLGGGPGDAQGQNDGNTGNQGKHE

B1: thaumatin (protein)
chain: ATFEIVNRCSYTVWAAASKGDAALDAGGRQLNSGESWTINVEPGTKGGKIWARTDCYFDDSGSGICKTGDCGGLLRCKRFGRPPTTLAEFSLNQYGKDYIDISNIKGFNVPMDFSPTTRGCRGVRCAADIVGQCPAKLKAPGGGCNDACTVFQTSEYCCTTGKCGPTEYSRFFKRLCPDAFSYVLDKPTTVTCPGSSNYRVTFCPTA
modifications: Eight disulfides
notes: sweet-tasting plant protein, E957

Molecular target: T1, human TAS1R2-WT/TAS1R3-L823F
Test: Calcium mobilisation assay, TAS1R2-WT with TAS1R3 variant L823F
Assay type: cell-based
Conditions: for Max ΔF/F0: maximal signal amplitude
Excerpt: The coding sequences for TAS1R2 and TAS1R3 were commercially synthesised, and the human codon was optimised for expression in human cells. The coding sequences of human TAS1R2 and TAS1R3 were subcloned and inserted into the mammalian expression vectors pcDNA6/myc-HisA and pcDNA4/myc-HisA (Invitrogen; Thermo Fisher Scientific; Illkirch, France) between the EcoRI and NotI restriction sites, generating the plasmids pcDNA6-TAS1R2 and pcDNA4-TAS1R3, respectively. To increase protein expression in mammalian cells, an upstream start codon was used, which was a sequence called MAX, corresponding to the QBI SP163 element also described in pcDNA4-HisMax (Invitrogen; Thermo Fisher Scientific; Illkirch, France). To measure the expression level of the receptor by immunohistochemistry, we used the FLAG sequence ([…]) in the C-terminal position, which encodes the FLAG tag epitope. SNP variants of TAS1R2 and TAS1R3 were constructed based on […], respectively, using site-directed mutagenesis (Genewiz; Leipzig, Germany).
The HEK293T cells were kindly provided by Jay P. Slack (Givaudan Flavors Corporation; Cincinnati, OH, USA). HEK293T cells stably transfected with Gα16gust44 [43, 67] were seeded in poly-D-lysine-coated clear-bottom black 96-well plates (0.35 × 10^5 cells/well) in high-glucose DMEM supplemented with 2 mM GlutaMAX, 10% dialysed foetal bovine serum with penicillin/streptomycin and G418 (400 μg/mL) at 37 °C and 6.3% CO2 in a humidified atmosphere as previously reported. […] As a negative control, HEK293T cells were mock-transfected with the empty expression vector. After a further 24 h of incubation, the HEK293T cells were washed with C1 buffer (130 mM NaCl, 5 mM KCl, 10 mM HEPES pH 7.4 and 2 mM CaCl2). The 96-well plates containing the cells were then stimulated with sweet-tasting compounds. […] Different concentration ranges were tested depending on the sweet compound injected. The Ca^2+ changes were expressed as fractional changes in fluorescent light intensity: ΔF/F = (F − F0)/F0, where F was the fluorescent light intensity at each point, and F0 was the value of emitted fluorescent light prior to stimulus application. To calculate dose–response relationships, the changes in fluorescence upon stimulus application were averaged, mock-subtracted and baseline-corrected. The dose–response data obtained were adjusted using a 4-parameter logistic equation. The half-maximal effective concentrations (EC50 values) and maximal signal amplitudes were calculated using SigmaPlot software (version 15.0) (Systat Software; San Jose, CA, USA).
For in vitro calcium mobilisation assay performed on hTAS1R2-SNPs, hTAS1R3-SNPs and mTAS1R3-I60T, 6 to 7 concentrations were tested for each sweet compound, plus buffer alone. All concentration–receptor combinations were measured in duplicate, and each experiment was repeated at least 4 times (8 wells/concentration). Results were expressed for each concentration as ΔF/F mean ± SEM and represented as dose–response curves.

Molecule	R1 = Variant EC50/WT EC50	Max ΔF/F0	EC50 (read-out: EC50)	EC50 (brazzein)
OC[C@H]1O[C@H](O[C@]2(CCl)O[C@H](CCl)[C@@H](O)[C@@H]2O)[C@H](O)[C@@H](O)[C@H]1Cl [Sucralose]	1.2	0.84 ± 0.02	134 ± 8 µM	–
C[C@H](CC[C@@H](O[C@@H]1O[C@H](CO[C@@H]2O[C@H](CO)[C@@H](O)[C@H](O)[C@H]2O)[C@@H](O)[C@H](O)[C@H]1O[C@@H]1O[C@H](CO)[C@@H](O)[C@H](O)[C@H]1O)C(C)(C)O)[C@H]1CC[C@@]2(C)[C@@H]3CC=C4[C@@H](CC[C@H](O[C@@H]5O[C@H](CO[C@@H]6O[C@H](CO)[C@@H](O)[C@H](O)[C@H]6O)[C@@H](O)[C@H](O)[C@H]5O)C4(C)C)[C@]3(C)[C@H](O)C[C@]12C [Mogroside V, mogroside V]	0.7	1.18 ± 0.04	22 ± 1.8 µM	–
COC(=O)[C@H](Cc1ccccc1)NC(=O)[C@H](CC(=O)O)NCCC(C)(C)C [Neotame]	0.9	0.76 ± 0.01	1.1 ± 0.06 µM	–
brazzein (QDKCKKVYENYPVSKCQLANQCNYDCKLDKHARSGECFYDEKRNLQCICDYCEY; ends and bridges not checked; cysteine pairing not given here; UniProt P56552 1-54, looked up) [sweet-tasting protein obtained by recombinant production using the yeast Pichia pastoris]	0.7	0.98 ± 0.05	–	78.9 ± 14.2 µg/mL
C=C(C)[C@@H]1CC=C(/C=N/O)CC1 [Perillartine, perillartine]	0.7	1.39 ± 0.15	10 ± 3.1 µM	–
CC1=CC(=O)NS(=O)(=O)O1 [Acesulfame K, acesulfame K]	0.6	0.33 ± 0.01	376 ± 34 µM	–
C=C1C[C@@]23CC[C@H]4[C@@](C)(CCC[C@@]4(C)C(=O)O[C@@H]4O[C@H](CO)[C@@H](O)[C@H](O[C@@H]5O[C@H](CO)[C@@H](O)[C@H](O)[C@H]5O)[C@H]4O[C@@H]4O[C@H](CO)[C@@H](O)[C@H](O)[C@H]4O)[C@@H]2CC[C@]1(O[C@@H]1O[C@H](CO)[C@@H](O)[C@H](O[C@@H]2O[C@H](CO)[C@@H](O)[C@H](O)[C@H]2O)[C@H]1O[C@@H]1O[C@H](CO)[C@@H](O)[C@H](O)[C@H]1O)C3 [Rebaudioside M, rebaudioside M]	0.8	1.35 ± 0.09	33.2 ± 5.4 µM	–
O=S(=O)(O)NC1CCCCC1 [Cyclamate, cyclamate]	–	–	1370 ± 34 µM	–
COc1ccc(CCC(=O)c2c(O)cc(O[C@@H]3O[C@H](CO)[C@@H](O)[C@H](O)[C@H]3O[C@@H]3O[C@@H](C)[C@H](O)[C@@H](O)[C@H]3O)cc2O)cc1O [NHDC, neohesperidin dihydrochalcone]	0.9	1.00 ± 0.01	43.1 ± 14.7 µM	–
thaumatin	0.7	0.71 ± 0.04	–	–
B1	–	–	7.4 ± 1.1 µM	–
